Values joined by “and” are separate entries in the source; they are usually repeats but may differ in a detail not shown here. Equal entries are not always repeated.

The target of this assay is Adenosine A2A receptor (Homo sapiens, UniProt P29274). In words: cAMP assay in 293A cells stably expressing the adenosine A2A receptor (CGS21680 stimulation, HTRF). The class given is cell-based. Further details: expressed in transfected cells; host or cells: 293A cells (Invitrogen, Cat# R705-07) infected with A2A-expressing lentivirus (custom packaged by Biosettia), puromycin selected. The note with it: 293A-A2AR cells, 0.1% BSA, 1 uM CGS; read-out: cAMP (nM) 0.1% BSA, 1 uM CGS. How it is done: A 293A cell line (Invitrogen, Cat# R705-07) stably expressing the adenosine A2A receptor was generated in house. Briefly, 293A cells were seeded in 6-well plate and infected with A2A expressing lentivirus (custom packaged by Biosettia) and selected with puromycin (1 ug/ml). Cells survived selection were confirmed for A2A expression by RT-qPCR (RT Reagent: High-Capacity cDNA Reverse Transcription Kit, Applied Biosystems/Thermo Fisher Cat# 4368814, qPCR reagent: SYBR™ Green Master Mix, Applied Biosystems/Thermo Fisher Cat# 4309155). The cells were maintained in DMEM/F12 medium containing 10% FBS, 100 units/ml Penicillin, 100 μg/ml Streptomycin, and 1 μg/ml puromycin at 37° C., 5% CO2. 293A-A2AR cells were harvested on the day of assay and resuspended at 0.6 million cells/ml in DMEM/F12 with 0.1% BSA and 30 U/ml denosine deaminase(Roche, Cat #: 10102121001). Serial dilutions of compounds were prepared in DMEM/F12 with 0.1% BSA to a DMSO concentration of 0.6%. After 4 μl of compound dilutions were added, 4 μl suspended cells were dispensed into low-volume white 384-well plates (Greiner Bio-One). […] The assay plate was then incubated at room temperature for 30 min. 3 μl of d2 conjugated cAMP and 3 μl cryptate conjugated anti-cAMP antibody were then added. D2 conjugated cAMP and cryptate conjugated anti-cAMP antibody (Cisbio, Cat #: 62AM6PEC) were both prepared in cell lysis buffer according to the manufacturer's instruction. After 1 h incubation at room temperature, plates were read in CIARIOstar plate reader (BMG Labtech) using the HTRF detection mode.
Sequence of Adenosine A2A receptor (P29274 whole entry): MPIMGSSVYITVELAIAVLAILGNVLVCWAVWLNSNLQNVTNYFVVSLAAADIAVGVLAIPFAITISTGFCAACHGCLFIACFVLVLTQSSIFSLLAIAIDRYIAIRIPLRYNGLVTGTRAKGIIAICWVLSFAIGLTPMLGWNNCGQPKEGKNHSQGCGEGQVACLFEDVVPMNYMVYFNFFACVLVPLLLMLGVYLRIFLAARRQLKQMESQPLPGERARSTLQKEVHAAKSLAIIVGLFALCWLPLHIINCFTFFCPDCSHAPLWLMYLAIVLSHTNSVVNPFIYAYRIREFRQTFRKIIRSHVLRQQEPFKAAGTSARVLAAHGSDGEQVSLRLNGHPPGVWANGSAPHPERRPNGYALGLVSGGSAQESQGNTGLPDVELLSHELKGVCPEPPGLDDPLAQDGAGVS
(Cyclic AMP is a second messenger, typically raised through Gs and lowered through Gi signalling.)

For the compound `CCc1nn(CC)nc1COc1nc(N)nc(-c2cccc(C#N)c2C)c1-c1cc(C)nc(C(F)F)c1` [Example 254, 3-(2-amino-6-((2,5-diethyl-2H-1,2,3-triazol-4-yl)methoxy)-5-(2-(difluoromethyl)-6-methylpyridin-4-yl)pyrimidin-4-yl)-2-methylbenzonitrile], the IC50 is 23500 nM. As for `CCc1nnn(CC)c1COc1nc(N)nc(-c2cccc(C#N)c2C)c1-c1cc(C)nc(C(F)F)c1` [Example 255, 3-(2-amino-6-((1,4-diethyl-1H-1,2,3-triazol-5-yl)methoxy)-5-(2-(difluoromethyl)-6-methylpyridin-4-yl)pyrimidin-4-yl)-2-methylbenzonitrile], the IC50 was above 25000 nM. Take `CCc1c(COc2nc(N)nc(-c3cccc(C#N)c3C)c2-c2cc(C)nc(C(F)F)c2)nnn1CC` [Example 256, 3-(2-amino-6-((1,5-diethyl-1H-1,2,3-triazol-4-yl)methoxy)-5-(2-(difluoromethyl)-6-methylpyridin-4-yl)pyrimidin-4-yl)-2-methylbenzonitrile]: the IC50 was found to be 2910 nM. The same measure for `Cc1cc(-c2c(OCc3ccn(CC(C)(C)O)n3)nc(N)nc2-c2ccc(F)cc2)cc(C(F)F)n1` [Example 258, 1-(3-(((2-amino-5-(2-(difluoromethyl)-6-methylpyridin-4-yl)-6-(4-fluorophenyl)pyrimidin-4-yl)oxy)methyl)-1H-pyrazol-1-yl)-2-methylpropan-2-ol]: 2390 nM; for `Cc1cc(-c2c(OCc3cccc(N4CCC(C)(O)CC4)n3)nc(N)nc2-c2ccc(F)cc2)cc(C(F)F)n1` [Example 259, 1-(6-(((2-amino-5-(2-(difluoromethyl)-6-methylpyridin-4-yl)-6-(4-fluorophenyl)pyrimidin-4-yl)oxy)methyl)pyridin-2-yl)-4-methylpiperidin-4-ol]: above 25000 nM; for `Cc1cc(-c2c(OCc3cccc(N4CC(C)(O)C4)n3)nc(N)nc2-c2ccc(F)cc2)cc(C(F)F)n1` [Example 260, 1-(6-(((2-amino-5-(2-(difluoromethyl)-6-methylpyridin-4-yl)-6-(4-fluorophenyl)pyrimidin-4-yl)oxy)methyl)pyridin-2-yl)-3-methylazetidin-3-ol]: 1360 nM.

For the compound `Cc1cc(-c2c(OCc3cc(C(C)(C)C#N)ccn3)nc(N)nc2-c2cccc(C#N)c2C)cc(C(F)F)n1` [Example 261, 3-(2-amino-6-((4-(2-cyanopropan-2-yl)pyridin-2-yl)methoxy)-5-(2-(difluoromethyl)-6-methylpyridin-4-yl)pyrimidin-4-yl)-2-methylbenzonitrile], the IC50 was determined as 2190 nM. The same measure for `Cc1cc(-c2c(OCc3nnn[nH]3)nc(N)nc2-c2ccc(F)cc2)cc(C(F)F)n1` [Example 269, 4-((1H-tetrazol-5-yl)methoxy)-5-(2-(difluoromethyl)-6-methylpyridin-4-yl)-6-(4-fluorophenyl)pyrimidin-2-amine]: above 25000 nM; for `Cc1cc(-c2c(OCc3cccc(C(C)O)n3)nc(N)nc2-c2ccc(F)cc2)cc(C(F)F)n1` (centres unmarked) [Example 272, 1-(6-(((2-amino-5-(2-(difluoromethyl)-6-methylpyridin-4-yl)-6-(4-fluorophenyl)pyrimidin-4-yl)oxy)methyl)pyridin-2-yl)ethan-1-ol]: 88 nM and 161 nM. The same measure for `Cc1cc(-c2c(OCc3cnccn3)nc(N)nc2-c2ccc(F)cc2)cc(C(F)F)n1` [Example 273, 5-(2-(difluoromethyl)-6-methylpyridin-4-yl)-4-(4-fluorophenyl)-6-(pyrazin-2-ylmethoxy)pyrimidin-2-amine]: 1660 nM. The same measure for `Cc1cc(-c2c(OCc3cccc(C(=O)O)n3)nc(N)nc2-c2ccc(F)cc2)cc(C(F)F)n1` [Example 274, 6-(((2-amino-5-(2-(difluoromethyl)-6-methylpyridin-4-yl)-6-(4-fluorophenyl)pyrimidin-4-yl)oxy)methyl)picolinic acid]: 3210 nM.

With `Cc1cc(-c2c(OCc3cccc(C4(C#N)CCOCC4)n3)nc(N)nc2-c2ccc(F)cc2)cc(C(F)F)n1` [Example 275, 4-(6-(((2-amino-5-(2-(difluoromethyl)-6-methylpyridin-4-yl)-6-(4-fluorophenyl)pyrimidin-4-yl)oxy)methyl)pyridin-2-yl)tetrahydro-2H-pyran-4-carbonitrile], the IC50 worked out at 321 nM.

With `Cc1cc(-c2c(OCc3ccnc(C(C)(C)C#N)c3)nc(N)nc2-c2ccc(F)cc2)cc(C(F)F)n1` [Example 277, 2-(4-(((2-amino-5-(2-(difluoromethyl)-6-methylpyridin-4-yl)-6-(4-fluorophenyl)pyrimidin-4-yl)oxy)methyl)pyridin-2-yl)-2-methylpropanenitrile], the IC50 came to 455 nM.

Consider `Cc1cc(-c2c(OC[C@H]3CC[C@@H](C(=O)O)CC3)nc(N)nc2-c2ccc(F)cc2)cc(C(F)F)n1` [Example 278, (1,4-cis)-4-(((2-amino-5-(2-(difluoromethyl)-6-methylpyridin-4-yl)-6-(4-fluorophenyl)pyrimidin-4-yl)oxy)methyl)cyclohexane-1-carboxylic acid], for which the IC50 turned out to be 19900 nM. Take `Cc1cc(-c2c(OC[C@H]3CC[C@H](C(=O)O)CC3)nc(N)nc2-c2ccc(F)cc2)cc(C(F)F)n1` [Example 279, (1,4-trans)-4-(((2-amino-5-(2-(difluoromethyl)-6-methylpyridin-4-yl)-6-(4-fluorophenyl)pyrimidin-4-yl)oxy)methyl)cyclohexane-1-carboxylic acid]: the IC50 was above 25000 nM. The same measure for `Cc1cc(-c2c(OCc3ccn(C)c(=O)c3)nc(N)nc2-c2ccc(F)cc2)cc(C(F)F)n1` [Example 280, 4-(((2-amino-5-(2-(difluoromethyl)-6-methylpyridin-4-yl)-6-(4-fluorophenyl)pyrimidin-4-yl)oxy)methyl)-1-methylpyridin-2(1H)-one]: 5800 nM; for `COCC(O)c1cccc(COc2nc(N)nc(-c3ccc(F)cc3)c2-c2cc(C)nc(C(F)F)c2)n1` (centres unmarked) [Example 281, 1-(6-(((2-amino-5-(2-(difluoromethyl)-6-methylpyridin-4-yl)-6-(4-fluorophenyl)pyrimidin-4-yl)oxy)methyl)pyridin-2-yl)-2-methoxyethan-1-ol]: 609 nM; for `Cc1cc(-c2c(OCc3cccc(N4CCCC4)n3)nc(N)nc2-c2ccc(F)cc2)cc(C(F)F)n1` [Example 283, 5-(2-(difluoromethyl)-6-methylpyridin-4-yl)-4-(4-fluorophenyl)-6-((6-(pyrrolidin-1-yl)pyridin-2-yl)methoxy)pyrimidin-2-amine]: 1170 nM. The same measure for `Cc1cc(-c2c(OCc3ccncc3)nc(N)nc2-c2ccc(F)cc2)cc(C(F)F)n1` [Example 286, 5-(2-(difluoromethyl)-6-methylpyridin-4-yl)-4-(4-fluorophenyl)-6-(pyridin-4-ylmethoxy)pyrimidin-2-amine]: 1800 nM.

With `Cc1cc(-c2c(OCc3ccnc(C(C)(C)O)c3)nc(N)nc2-c2ccc(F)cc2)cc(C(F)F)n1` [Example 287, 2-(4-(((2-amino-5-(2-(difluoromethyl)-6-methylpyridin-4-yl)-6-(4-fluorophenyl)pyrimidin-4-yl)oxy)methyl)pyridin-2-yl)propan-2-ol], the IC50 was found to be 835 nM.

(Values after patent US20210355104A1, “ADENOSINE RECEPTOR BINDING COMPOUNDS” (Nikang Therapeuticsm Inc., priority 2018, published 2021).)
